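Tested at 5 concentrations; 48 h exposure; 96-well plates; endpoints linearly interpolated, else capped at highest concentration. The concentration for 50% growth inhibition is given as GI50.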 Calls of active or inactive are those of the source. Rule as the data show it: active = GI50 up to about 1.1 µM and inactive = higher.
What was measured:
Assay in all cases: NCI-60 cell line screen, 48 h
SNB-75 = tested on: SNB-75
SK-MEL-28 = tested on: SK-MEL-28
OVCAR-8 = tested on: OVCAR-8
MOLT-4 = tested on: MOLT-4
OVCAR-3 = tested on: OVCAR-3
SK-OV-3 = tested on: SK-OV-3
M14 = tested on: M14
SW-620 = tested on: SW-620
SK-MEL-5 = tested on: SK-MEL-5
TK-10 = tested on: TK-10
UO-31 = tested on: UO-31
SK-MEL-2 = tested on: SK-MEL-2
U-251 = tested on: U-251
Hs-578T = tested on: Hs-578T
CAKI-1 = tested on: CAKI-1
HOP-92 = tested on: HOP-92
T47D = tested on: T47D
NCI-H522 = tested on: NCI-H522
NCI-H460 = tested on: NCI-H460

Structure (SMILES)	GI50 (SNB-75)	GI50 (SK-MEL-28)	GI50 (OVCAR-8)	GI50 (MOLT-4)	GI50 (OVCAR-3)	GI50 (SK-OV-3)	GI50 (M14)	GI50 (SW-620)	GI50 (SK-MEL-5)	GI50 (TK-10)	GI50 (UO-31)	GI50 (SK-MEL-2)	GI50 (U-251)	GI50 (Hs-578T)	GI50 (CAKI-1)	GI50 (HOP-92)	GI50 (T47D)	GI50 (NCI-H522)	GI50 (NCI-H460)
COc1cc2oc(=O)cc(C)c2c(OC)c1OC	67.6 µM (inactive)	> 100 µM (inactive)	> 100 µM (inactive)	> 100 µM (inactive)	> 100 µM (inactive)	> 100 µM (inactive)	> 100 µM (inactive)	> 100 µM (inactive)	> 100 µM (inactive)	> 100 µM (inactive)	38.7 µM (inactive)	> 100 µM (inactive)	> 100 µM (inactive)	> 100 µM (inactive)	–	–	–	–	–
CCCCN(CCCC)CCC(O)c1cc2c(Cl)cc(Cl)cc2c2cc(C(F)(F)F)ccc12 (centres undefined)	11.7 µM (inactive)	16.7 µM (inactive)	14.3 µM (inactive)	8.57 µM (inactive)	11.6 µM (inactive)	14 µM (inactive)	8.93 µM (inactive)	11.3 µM (inactive)	–	13.4 µM (inactive)	4.2 µM (inactive)	16.1 µM (inactive)	14.4 µM (inactive)	–	12.2 µM (inactive)	1.32 µM (inactive)	12.8 µM (inactive)	17.5 µM (inactive)	10.3 µM (inactive)
CCCNC(=O)c1cc(OC)c(OC)cc1NC(=O)C12CC3CC(CC(C3)C1)C2	–	16.1 µM (inactive)	23.7 µM (inactive)	29.9 µM (inactive)	19 µM (inactive)	–	15.2 µM (inactive)	> 100 µM (inactive)	40 µM (inactive)	16.6 µM (inactive)	16.6 µM (inactive)	15.5 µM (inactive)	17 µM (inactive)	19.8 µM (inactive)	19.8 µM (inactive)	18.3 µM (inactive)	17.5 µM (inactive)	12.3 µM (inactive)	20.6 µM (inactive)
N#C/C(C(=O)Nc1ccc(Cl)cc1)=C(/N)N1CCCC1	> 100 µM (inactive)	> 100 µM (inactive)	> 100 µM (inactive)	> 100 µM (inactive)	> 100 µM (inactive)	> 100 µM (inactive)	> 100 µM (inactive)	> 100 µM (inactive)	> 100 µM (inactive)	–	> 100 µM (inactive)	> 100 µM (inactive)	> 100 µM (inactive)	–	> 100 µM (inactive)	> 100 µM (inactive)	> 100 µM (inactive)	–	> 100 µM (inactive)
Cc1cn(CC2=NCC(O)CN2)c(=O)[nH]c1=O (centres undefined)	–	> 100 µM (inactive)	> 100 µM (inactive)	> 100 µM (inactive)	> 100 µM (inactive)	> 100 µM (inactive)	> 100 µM (inactive)	> 100 µM (inactive)	> 100 µM (inactive)	> 100 µM (inactive)	> 100 µM (inactive)	> 100 µM (inactive)	> 100 µM (inactive)	–	> 100 µM (inactive)	> 100 µM (inactive)	> 100 µM (inactive)	> 100 µM (inactive)	> 100 µM (inactive)
COc1cccc(-c2nc(-c3cnccn3)n(COCCO)n2)c1	–	> 100 µM (inactive)	> 100 µM (inactive)	> 100 µM (inactive)	> 100 µM (inactive)	> 100 µM (inactive)	> 100 µM (inactive)	> 100 µM (inactive)	> 100 µM (inactive)	> 100 µM (inactive)	> 100 µM (inactive)	–	> 100 µM (inactive)	–	–	> 100 µM (inactive)	> 100 µM (inactive)	> 100 µM (inactive)	> 100 µM (inactive)
N/C(=N\c1cccc(Cl)c1)c1ccccc1N	> 100 µM (inactive)	> 100 µM (inactive)	> 100 µM (inactive)	> 100 µM (inactive)	> 100 µM (inactive)	> 100 µM (inactive)	> 100 µM (inactive)	> 100 µM (inactive)	> 100 µM (inactive)	> 100 µM (inactive)	> 100 µM (inactive)	–	> 100 µM (inactive)	> 100 µM (inactive)	> 100 µM (inactive)	–	–	> 100 µM (inactive)	> 100 µM (inactive)
N#Cc1nc(C2=C(Cl)c3ccccc3OC2)[nH]c1C#N	–	23.2 µM (inactive)	30.4 µM (inactive)	12.9 µM (inactive)	27.7 µM (inactive)	36.7 µM (inactive)	19.4 µM (inactive)	24.7 µM (inactive)	19.1 µM (inactive)	33.6 µM (inactive)	24 µM (inactive)	–	18.4 µM (inactive)	38.3 µM (inactive)	58.6 µM (inactive)	14.9 µM (inactive)	–	–	22 µM (inactive)
COc1ccc2c(-c3csc(-c4c[nH]c5ccc(Br)cc45)n3)c[nH]c2c1	–	> 100 µM (inactive)	> 100 µM (inactive)	23 µM (inactive)	> 100 µM (inactive)	–	> 100 µM (inactive)	> 100 µM (inactive)	> 100 µM (inactive)	49 µM (inactive)	> 100 µM (inactive)	19.1 µM (inactive)	25.1 µM (inactive)	74.1 µM (inactive)	85.7 µM (inactive)	64.3 µM (inactive)	59.3 µM (inactive)	23.1 µM (inactive)	23.2 µM (inactive)
O=C(Nc1nc(C23CC4CC(CC(C4)C2)C3)cs1)c1cc2ccccc2oc1=O	> 100 µM (inactive)	> 100 µM (inactive)	> 100 µM (inactive)	> 100 µM (inactive)	> 100 µM (inactive)	–	–	> 100 µM (inactive)	> 100 µM (inactive)	> 100 µM (inactive)	> 100 µM (inactive)	–	> 100 µM (inactive)	> 100 µM (inactive)	> 100 µM (inactive)	> 100 µM (inactive)	–	> 100 µM (inactive)	> 100 µM (inactive)
CC(C)CC(=O)CC(C)[C@]1(CCCOCc2ccccc2)C(=O)N2CCC3(C[C@@]24CCC[C@H]41)OCCO3 (some centres undefined)	–	–	> 10 µM (inactive)	> 10 µM (inactive)	> 10 µM (inactive)	> 10 µM (inactive)	> 10 µM (inactive)	> 10 µM (inactive)	> 10 µM (inactive)	> 10 µM (inactive)	> 10 µM (inactive)	> 10 µM (inactive)	> 10 µM (inactive)	–	> 10 µM (inactive)	> 10 µM (inactive)	–	> 10 µM (inactive)	> 10 µM (inactive)
O=C(C/C(=N\NC(=O)C[n+]1ccccc1)C(=O)Nc1nc2ccc([N+](=O)[O-])cc2s1)CC(c1ccccc1)c1c(O)c2ccccc2oc1=O (centres undefined)	–	> 100 µM (inactive)	> 100 µM (inactive)	> 100 µM (inactive)	> 100 µM (inactive)	> 100 µM (inactive)	> 100 µM (inactive)	> 100 µM (inactive)	> 100 µM (inactive)	> 100 µM (inactive)	67.5 µM (inactive)	> 100 µM (inactive)	–	–	> 100 µM (inactive)	> 100 µM (inactive)	–	99.5 µM (inactive)	> 100 µM (inactive)
CN(C)c1cccc2c1C(=O)C=CC21c2ccc(N(C)C)c3c(N(C)C)ccc(c23)C(c2ccccc2)C1c1ccccc1 (centres undefined)	8.26 µM (inactive)	17.5 µM (inactive)	13.5 µM (inactive)	0.592 µM (active)	12.6 µM (inactive)	11.4 µM (inactive)	16.7 µM (inactive)	19.8 µM (inactive)	14.2 µM (inactive)	12 µM (inactive)	4.8 µM (inactive)	–	10.5 µM (inactive)	10 µM (inactive)	1.64 µM (inactive)	8.73 µM (inactive)	–	21.3 µM (inactive)	24 µM (inactive)
CCOC(=O)C(Cc1c(C=O)[nH]c2ccccc12)(NC(=O)c1ccccc1)C(=O)OCC	–	16.9 µM (inactive)	19.1 µM (inactive)	6.65 µM (inactive)	13 µM (inactive)	23.9 µM (inactive)	17 µM (inactive)	14.2 µM (inactive)	11.4 µM (inactive)	22.4 µM (inactive)	16.1 µM (inactive)	16.5 µM (inactive)	11.6 µM (inactive)	–	–	11.7 µM (inactive)	–	–	24.3 µM (inactive)
C=C1c2nc3ccccc3n2C=C(c2ccc(Cl)cc2)N1c1ccc(OCCN2CCCCC2)cc1	–	> 45 µM (inactive)	> 45 µM (inactive)	> 45 µM (inactive)	> 45 µM (inactive)	> 45 µM (inactive)	> 45 µM (inactive)	> 45 µM (inactive)	> 45 µM (inactive)	> 45 µM (inactive)	> 45 µM (inactive)	> 45 µM (inactive)	> 45 µM (inactive)	–	> 45 µM (inactive)	> 45 µM (inactive)	> 45 µM (inactive)	14.8 µM (inactive)	1.72 µM (inactive)
COC(=O)C1=C(C(=O)OC)C2CCC1CC2=O (centres undefined)	> 100 µM (inactive)	> 100 µM (inactive)	> 100 µM (inactive)	45.5 µM (inactive)	> 100 µM (inactive)	> 100 µM (inactive)	> 100 µM (inactive)	89.9 µM (inactive)	> 100 µM (inactive)	> 100 µM (inactive)	55.1 µM (inactive)	> 100 µM (inactive)	> 100 µM (inactive)	–	> 100 µM (inactive)	–	–	70.6 µM (inactive)	> 100 µM (inactive)
Cc1ccc(C(=O)Nc2ccc(S(=O)(=O)O)c3cc(S(=O)(=O)O)cc(S(=O)(=O)O)c23)cc1NC(=O)Nc1cc(C(=O)Nc2ccc(S(=O)(=O)O)c3cc(S(=O)(=O)O)cc(S(=O)(=O)O)c23)ccc1C	> 87.5 µM (inactive)	> 87.5 µM (inactive)	> 87.5 µM (inactive)	> 87.5 µM (inactive)	> 87.5 µM (inactive)	–	> 87.5 µM (inactive)	> 87.5 µM (inactive)	> 87.5 µM (inactive)	> 87.5 µM (inactive)	> 87.5 µM (inactive)	> 87.5 µM (inactive)	> 87.5 µM (inactive)	–	> 87.5 µM (inactive)	–	> 87.5 µM (inactive)	> 87.5 µM (inactive)	> 87.5 µM (inactive)

Reference: ChEMBL document CHEMBL1201862, “PubChem BioAssay data set” (2004)
